Article PMC7090077, “Developing a highly efficient hydroxytyrosol whole-cell catalyst by de-bottlenecking rate-limiting steps” (Nature Communications, 2020)
pEC50, pKd: −log10 of the molar value.

Columns and labels:
HpaBC = molecular target: T1, HpaBC (Escherichia coli, UniProt Q57160); test: specific activity, product formation by HPLC; type: biochemical; conditions: wild-type
T1 construct: gene hpaB; HpaB and HpaC purified on Ni-NTA; two-component flavin-dependent monooxygenase; with 4-hydroxyphenylacetate 3-monooxygenase reductase component
T1 sequence (Q57160 1-520): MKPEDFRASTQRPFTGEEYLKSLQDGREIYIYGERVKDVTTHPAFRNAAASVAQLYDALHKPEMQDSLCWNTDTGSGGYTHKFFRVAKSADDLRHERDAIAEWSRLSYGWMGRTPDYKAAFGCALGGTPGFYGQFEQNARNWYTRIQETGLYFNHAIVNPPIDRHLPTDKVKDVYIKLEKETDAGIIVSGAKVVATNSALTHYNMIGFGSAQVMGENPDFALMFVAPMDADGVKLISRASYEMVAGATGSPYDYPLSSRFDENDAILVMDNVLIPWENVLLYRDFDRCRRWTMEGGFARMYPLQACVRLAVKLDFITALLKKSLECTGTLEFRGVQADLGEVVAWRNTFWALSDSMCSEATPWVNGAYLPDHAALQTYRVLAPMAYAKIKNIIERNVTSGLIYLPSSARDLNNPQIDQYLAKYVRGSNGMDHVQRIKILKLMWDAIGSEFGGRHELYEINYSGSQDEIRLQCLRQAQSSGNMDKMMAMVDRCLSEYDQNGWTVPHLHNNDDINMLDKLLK

VanR [1] = molecular target: T2, VanR (Corynebacterium glutamicum, UniProt Q8NN31, R148L/Y103L/Y168M); test: RFP reporter induction in E. coli BW25113 with plasmid pVanR; type: cell-based
T2 construct: gene Cgl2382; full length; GST fusion from pGEX-6p-1 in E. coli BL21(DE3), GST tag cleaved with PreScission protease; homodimer, ligand pocket at subunit interface
T2 sequence (Q8NN31 entry or part of it Y103L/R148L/Y168M): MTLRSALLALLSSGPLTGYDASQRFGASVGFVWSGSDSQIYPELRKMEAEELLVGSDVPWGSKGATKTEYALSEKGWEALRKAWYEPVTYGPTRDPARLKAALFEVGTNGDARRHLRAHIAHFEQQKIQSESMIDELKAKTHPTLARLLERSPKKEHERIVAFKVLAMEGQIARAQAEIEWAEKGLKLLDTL

VanR [2] = molecular target: T3, VanR (Corynebacterium glutamicum, UniProt Q8NN31); test: isothermal titration calorimetry; type: binding
T3 construct: gene Cgl2382; full length; GST fusion from pGEX-6p-1 in E. coli BL21(DE3), GST tag cleaved with PreScission protease; homodimer, ligand pocket at subunit interface
T3 sequence (Q8NN31 entry or part of it): as the sequence (Q8NN31 entry or part of it Y103L/R148L/Y168M) above, with L103Y, L148R, M168Y counted along it

Question: For O=C(O)Cc1ccc(O)cc1 [4-hydroxyphenylacetate], which specific activity (HpaBC) is on record?
Answer: the hydroxylation activity of these HpaBC mutants on the original substrate 4-HPA reduced considerably

Question: OCCc1ccc(O)c(O)c1 [hydroxytyrosol] was tested. Which pEC50 (VanR [1]) did it give?
Answer: ~3.30

Question: How did the pKd (VanR [2]) turn out when COc1cc(C(=O)O)ccc1O [vanillic acid] was run?
Answer: 5.16
